Test results published in publication PMC6753678, “Fueling Open Innovation for Malaria Transmission-Blocking Drugs: Hundreds of Molecules Targeting Early Parasite Mosquito Stages” (Frontiers in Microbiology, 2019).
Where two headings read alike, the source gives them in different places.

Columns and labels:
[1] = test system: P. berghei ookinete development; conditions: for % inhibition, Replicate A / % inhibition, Replicate B: primary screen at 1 μM
HepG2 cells = assay: HepG2 cytotoxicity assay; conditions: for IC50: read-out: HepG2 cytotoxicity assay IC50, dose response confirmation; for Pb ODA (this manuscript) HepG2 cytoxicity: HepG2 cytotoxicity listed with the Pb ODA data set (this manuscript)
Summary of the method: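 Cells at 2,500 per well in MEM with 10% fetal bovine serum and 1% NEAA were exposed to test compounds for 48 h at 37°C, 5% CO2. Viability was read by fluorescence, with percent inhibition calculated against 50 μM doxorubicin (positive) and DMSO (negative) controls.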

[2] = test system: 3D7-strain P. falciparum asexual parasites; assay: P. falciparum asexual growth inhibition assay (Pf GIA); format: cell-based, Plasmodium falciparum; conditions: dose response confirmation; read-out: Pf asexual growth inhibition assays IC50
Summary of the method: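 3D7 parasites at 0.25% parasitemia, 2% hematocrit were exposed to compounds in dose response for 72 h at 37°C under 5% CO2, 5% O2. Viability read as parasite LDH activity (nitro blue tetrazolium, A650) after freeze-thaw; inhibition scaled to chloroquine (50 μM) and DMSO controls, mean of three biological replicates.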

[3] = read-out: Pb ODA IC50, this manuscript
[4] = read-out: Pb Ookinete development assay IC50, dose response confirmation
[5] = HepG2 values of the three screens unified
[6] = read-out: Pb ODA (this manuscript) IC50, P. berghei ookinete development assay, this manuscript
[7] = unified HepG2 value across the three screens

SMILES	Is compound selective in assay? Pb ODA active? ([1]; 1: YES, 0: NO)	% inhibition, Replicate A [1]	% inhibition, Replicate B [1]	IC50 [1, 3]	IC50 [1, 4]	HepG2 cytoxicity (Pb ODA, this manuscript) (HepG2 cells)	Unified cytotox (HepG2 cells; [5])	IC50 (HepG2 cells)	IC50 [2]	Is compound selective in assay? Pb ODA active? [1]	IC50 [1, 6]	Pb ODA (this manuscript) HepG2 cytoxicity (HepG2 cells)	Unified cytotox (HepG2 cells; [7])	% inhibition, Replicate A ([1]; 1 µM)	% inhibition, Replicate B ([1]; 1 µM)
COc1ccc2ncc(C)c(CCN3CCC(NCc4ccc5c(n4)NC(=O)CS5)CC3)c2c1.Cl [TCMDC-134648]	1 (1: YES)	66.89%	104.06%	2550 nM	2550 nM	34.67 µM	34.67 µM	34700 nM	872 nM						
CCCCCCCCCc1c(C)[nH]c2ccccc2c1=O [TCMDC-137268]		77.84%	91.25%		386 nM			67600 nM	168 nM	1 (key: 1: YES; 0: NO)	390 nM	67.61 µM			
Cl.O=C1CSc2ccc(CNC3CCN(CCc4c(Cl)cnc5ccc(F)cc45)CC3)nc2N1 [TCMDC-141960]	1 (1: YES)	68.86%	55.86%	3040 nM	3040 nM	38.90 µM	38.90 µM	38900 nM	207 nM						
Cc1[nH]c(C)c(-c2ccc(-c3ccc4c(c3)OCO4)nc2)c(=O)c1Br [TCMDC-136161]	1 (1: YES)	101.58%	91.12%	1430 nM	1430 nM		100.00 µM	100000 nM	646 nM						
O=C(NC(=O)c1ccccc1O)c1ccccc1O [TCMDC-125868]	1 (1: YES)	63.28%	34.36%		460 nM			100000 nM	2030 nM				100.00 µM		
Cc1nc(C)c(-c2ccc(Oc3ccc(OC(F)(F)F)cc3)cc2)c(OC(=O)c2ccccc2)c1Cl [TCMDC-137380]		56.36%	103.63%		860 nM			37600 nM	173 nM	1 (key: 1: YES; 0: NO)		37.58 µM			
O=C(Nc1ccc(N2CCCN(Cc3cccc(F)c3)CC2)cc1)c1cccs1.O=C(O)C(F)(F)F [TCMDC-135012]		50.47%	51.73%		1900 nM			78500 nM	650 nM	1 (key: 1: YES; 0: NO)	1900 nM	78.52 µM			
CCC(CC)n1c(COC)cc2c3c(N)nc(N)nc3ccc21 [TCMDC-137313]	0 (0: NO)	74.51%	66.56%	1350 nM	1350 nM	0.0017 µM	0.0017 µM	1.7 nM	< 0.2 nM						
COc1ccc(NC2=C(c3ccccc3)C(=O)c3ccccc32)cn1 [TCMDC-125501]		44.98%	57.32%		1980 nM			100000 nM	385 nM	1 (key: 1: YES; 0: NO)	1980 nM	100.00 µM			
Cc1[nH]c(C)c(-c2ccc(-c3ccc(OC(F)(F)F)cc3)nc2)c(=O)c1Br [TCMDC-136016]	1 (1: YES)	59.20%	74.30%	450 nM	446 nM		100.00 µM	100000 nM	326 nM						
CNC(=O)c1ccccc1Nc1nc(Nc2ccc(CCN3CCN(C)CC3)cc2)ncc1Cl.Cl [TCMDC-133800]		66.37%	76.75%		2320 nM			2260 nM	402 nM	0 (key: 1: YES; 0: NO)	2310 nM	2.26 µM			
CC(C)CCN1CCC(Oc2ccc(NC(=O)c3cccs3)cc2Cl)CC1.O=C(O)C(F)(F)F [TCMDC-133974]		38.26%	57.89%		1450 nM			21400 nM	660 nM	1 (key: 1: YES; 0: NO)	1450 nM	21.38 µM			
C=Cc1ccc(-c2c(C)[nH]c(C)c(Br)c2=O)cc1 [TCMDC-135433]		31.67%	64.44%		1240 nM			57500 nM	433 nM	1 (key: 1: YES; 0: NO)	1240 nM	57.54 µM			
Cc1[nH]c(C)c(-c2ccc(Oc3ccc(Cl)cc3)cc2)c(=O)c1C [TCMDC-137378]	1 (1: YES)	87.44%	100.49%	640 nM	636 nM	8.61 µM	8.61 µM	8610 nM	< 0.2 nM						
Cc1nc(C)c(-c2ccc(Cl)cc2)c(O)c1I [TCMDC-137424]		40.29%	60.84%		1840 nM			100000 nM	239 nM	1 (key: 1: YES; 0: NO)	1840 nM	100.00 µM			
Cc1cc(=O)c(-c2ccc(Oc3cccc(C(F)(F)F)c3)cc2)c(C)[nH]1 [TCMDC-137536]					2650 nM			100000 nM	3230 nM	1 (key: 1: YES; 0: NO)	2650 nM	100.00 µM		91.76%	80.63%
OCCc1ccc(Nc2nccc(-c3nnc4ccccn34)n2)cc1 [TCMDC-138924]	1 (1: YES)	70.77%	81.57%	400 nM	395 nM			100000 nM	< 0.2 nM				100.00 µM		
COc1ccc2ncc(F)c(CCN3CCC(NCc4ccc5c(c4)CCO5)CC3)c2n1.Cl [TCMDC-135491]		14.40%	53.74%		3390 nM			31600 nM	879 nM	0 (key: 1: YES; 0: NO)	3390 nM	31.62 µM			
Cc1[nH]c(C)c([N+](=O)[O-])c(=O)c1-c1ccc(Oc2ccccc2)cc1 [TCMDC-135779]		85.12%	87.09%		540 nM			100000 nM	809 nM	1 (key: 1: YES; 0: NO)		100.00 µM			
